Test results reported in patent publication US8735321B2, “Process for the production of particles comprising active agrochemical ingredients in amorphous form” (priority 2008, dated 2014).

Assay: crystal formation of active ingredient mixtures from acetone after one week storage at 20° C.
Type: physicochemical
Conditions: stored one week at 20° C.
Description: The active ingredients were dissolved in acetone (see Table 1) and combined to give the mixing ratios (Table 2). The acetone was evaporated for two days at room temperature and then stripped off in vacuum for 5 h at 80° C. (method A). Temperature-insensitive active ingredients Were subsequently melted for an additional 15 h at 140° C. (method B). The samples were cooled to 20° C. in each case and stored for one week at 20° C.

[1] = method B (as A, then melted 15 h at 140° C.)

| SMILES | Crystal formation [1] | Crystal formation (method A (acetone evaporated, vacuum 5 h at 80° C.)) |
| --- | --- | --- |
| Cn1cc(C(=O)Nc2ccccc2-c2cc(F)c(F)c(F)c2)c(C(F)F)n1 [Fungicide A, N-(3′,4′,5′-trifluorobiphenyl-2-yl)-3-difluoromethyl-1-methyl-1H-pyrazole-4-carboxamide] | Yes | – |
| COCC(=O)N(c1c(C)cccc1C)C(C)C(=O)OC (centres unmarked) [Metalaxyl] | – | Yes |
| Fc1ccc([C@]2(Cn3cncn3)O[C@H]2c2ccccc2Cl)cc1 (racemic) [Epoxiconazole] | Yes | – |
| CC1(C)CCC(=Cc2ccc(Cl)cc2)C1(O)Cn1cncn1 (centres unmarked) [Triticonazole] | Yes | – |
| O=C(Nc1ccccc1-c1ccc(Cl)cc1)c1cccnc1Cl [Boscalid] | Yes | – |
